Like-named read-outs stand apart in the source and are kept apart here. Peptide text beside a SMILES is read from it.
Conditions: human, in vivo; for Vd: mean apparent volume of distribution (Vz)
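Note: phase 1 study in human subjects given one IV dose of the peptide, enrolled in sequential ascending-dose cohorts and randomized to peptide or placebo.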

**Q.** What does the source list for `CC(C)[C@H](NC(=O)[C@H](Cc1c[nH]c2ccccc12)NC(=O)[C@H](CCCNC(=N)N)NC(=O)[C@H](CCCNC(=N)N)NC(=O)[C@@H](NC(=O)[C@@H](NC(=O)[C@H](CCCNC(=N)N)NC(=O)[C@@H](NC(=O)[C@@H](NC(=O)[C@H](CCCNC(=N)N)NC(=O)[C@H](CCCNC(=N)N)NC(=O)[C@H](Cc1c[nH]c2ccccc12)NC(=O)[C@@H](NC(=O)[C@H](CCCNC(=N)N)NC(=O)[C@H](CCCNC(=N)N)NC(=O)[C@@H](NC(=O)[C@H](CCCNC(=N)N)NC(=O)[C@H](CCCNC(=N)N)NC(=O)[C@@H](NC(=O)[C@H](Cc1c[nH]c2ccccc12)NC(=O)[C@H](CCCNC(=N)N)NC(=O)[C@@H](N)CCCNC(=N)N)C(C)C)C(C)C)C(C)C)C(C)C)C(C)C)C(C)C)C(C)C)C(=O)N[C@@H](CCCNC(=N)N)C(=O)N[C@@H](CCCNC(=N)N)C(N)=O` [SEQ ID NO: 1] (H-RRWVRRVRRVWRRVVRVVRRWVRR-NH2)?
**A.** Cmax (iv, Cohort 4, 0.5 mg/kg IV infusion 2 hours, Median): 1970 ng/mL; Cmax (iv, Cohort 4, 0.5 mg/kg IV, infusion 2 hours, cohort Geometric Mean): 1770 ng/mL; Cmax (iv, Cohort 4, 0.5 mg/kg IV, infusion 2 hours, cohort Mean): 1830 ng/mL; Cmax (iv, Cohort 4, 0.5 mg/kg IV, infusion 2 hours, cohort Median): 1970 ng/mL; Cmax (iv, Cohort 5, 1 mg/kg IV infusion 4 hours, Geometric Mean): 2580 ng/mL; Cmax (iv, Cohort 5, 1 mg/kg IV infusion 4 hours, Mean): 2650 ng/mL; Cmax (iv, Cohort 5, 1 mg/kg IV infusion 4 hours, Median): 2510 ng/mL; Cmax (iv, Cohort 5, 1 mg/kg IV infusion 4 hours, individual subject): 4000 ng/mL; Tmax (iv, Tmax, Cohort 1, 0.05 mg/kg IV infusion, Geometric Mean): 1 h; Tmax (iv, Tmax, Cohort 1, 0.05 mg/kg IV infusion, Mean): 1 h; Tmax (iv, Tmax, Cohort 1, 0.05 mg/kg IV infusion, Median): 1 h; Tmax (iv, Tmax, Cohort 1, 0.05 mg/kg IV infusion, cohort Geometric Mean): 1 h; Tmax (iv, Tmax, Cohort 1, 0.05 mg/kg IV infusion, cohort Mean): 1 h; Tmax (iv, Tmax, Cohort 1, 0.05 mg/kg IV infusion, cohort Median): 1 h; Tmax (iv, Tmax, Cohort 1, 0.05 mg/kg IV infusion, individual subject): 1 h; Tmax (iv, Tmax, Cohort 1, 0.05 mg/kg IV infusion, individual subjects): 1 h; Tmax (iv, Tmax, Cohort 2, […] IV infusion, Geometric Mean): 1 h; Tmax (iv, Tmax, Cohort 2, […] IV infusion, Mean): 1 h; Tmax (iv, Tmax, Cohort 2, […] IV infusion, Median): 1 h; Tmax (iv, Tmax, Cohort 2, […] IV infusion, cohort Geometric Mean): 1 h; Tmax (iv, Tmax, Cohort 2, […] IV infusion, cohort Mean): 1 h; Tmax (iv, Tmax, Cohort 2, […] IV infusion, cohort Median): 1 h; Tmax (iv, Tmax, Cohort 2, […] IV infusion, individual subject): 1 h; Tmax (iv, Tmax, Cohort 2, […] IV infusion, individual subjects): 1 h; Tmax (iv, Tmax, Cohort 3, […] IV infusion, Geometric Mean): 0.66 h; Tmax (iv, Tmax, Cohort 3, […] IV infusion, Mean): 0.71 h; Tmax (iv, Tmax, Cohort 3, […] IV infusion, Median): 0.5 h; Tmax (iv, Tmax, Cohort 3, […] IV infusion, cohort Geometric Mean): 0.66 h; Tmax (iv, Tmax, Cohort 3, […] IV infusion, cohort Mean): 0.71 h; Tmax (iv, Tmax, Cohort 3, […] IV infusion, cohort Median): 0.5 h; Tmax (iv, Tmax, Cohort 3, […] IV infusion, individual subject): 1 h; Tmax (iv, Tmax, Cohort 3, […] IV infusion, individual subjects): 1 h; Tmax (iv, Tmax, Cohort 3b, […] IV infusion 2 hours, Geometric Mean): 2 h; Tmax (iv, Tmax, Cohort 3b, […] IV infusion 2 hours, Mean): 2 h; Tmax (iv, Tmax, Cohort 3b, […] IV infusion 2 hours, Median): 2 h; Tmax (iv, Tmax, Cohort 3b, […] IV infusion 2 hours, individual subject): 2 h; Tmax (iv, Tmax, Cohort 3b, infusion 2 hours, cohort Geometric Mean): 2 h; Tmax (iv, Tmax, Cohort 3b, infusion 2 hours, cohort Mean): 2 h; Tmax (iv, Tmax, Cohort 3b, infusion 2 hours, cohort Median): 2 h; Tmax (iv, Tmax, Cohort 3b, infusion 2 hours, individual subjects): 2 h; Tmax (iv, Tmax, Cohort 4, 0.5 mg/kg IV infusion 2 hours, Geometric Mean): 2 h; Tmax (iv, Tmax, Cohort 4, 0.5 mg/kg IV infusion 2 hours, Mean): 2 h; Tmax (iv, Tmax, Cohort 4, 0.5 mg/kg IV infusion 2 hours, Median): 2 h; Tmax (iv, Tmax, Cohort 4, 0.5 mg/kg IV infusion 2 hours, individual subject): 2 h; Tmax (iv, Tmax, Cohort 4, 0.5 mg/kg IV, infusion 2 hours, cohort Geometric Mean): 2 h; Tmax (iv, Tmax, Cohort 4, 0.5 mg/kg IV, infusion 2 hours, cohort Mean): 2 h; Tmax (iv, Tmax, Cohort 4, 0.5 mg/kg IV, infusion 2 hours, cohort Median): 2 h; Tmax (iv, Tmax, Cohort 4, 0.5 mg/kg IV, infusion 2 hours, individual subjects): 2 h; Tmax (iv, Tmax, Cohort 5, 1 mg/kg IV infusion 4 hours, Geometric Mean): 4 h; Tmax (iv, Tmax, Cohort 5, 1 mg/kg IV infusion 4 hours, Mean): 4 h; Tmax (iv, Tmax, Cohort 5, 1 mg/kg IV infusion 4 hours, Median): 4 h; Tmax (iv, Tmax, Cohort 5, 1 mg/kg IV infusion 4 hours, individual subject): 4 h; half-life (iv, […], t1/2, […] IV 1-hr infusion): 10.5 h; half-life (iv, […], t1/2, […] IV 1-hr infusion (only 3 participants)): 19.9 h; half-life (iv, […], t1/2, […] IV 2-hr infusion): 13.2 h; Tmax (iv, median Tmax, 0.05 and […] doses, 1-hour IV infusion (Cohorts 1, 2)): 1.02 h; Tmax (iv, median Tmax, 0.25 and 0.5 mg/kg doses, 2-hour IV infusion (Cohorts 3b, 4)): 2.02 h; half-life (iv, t1/2, Cohort 1, 0.05 mg/kg IV infusion, Geometric Mean): 7.33 h; half-life (iv, t1/2, Cohort 1, 0.05 mg/kg IV infusion, Mean): 7.36 h; half-life (iv, t1/2, Cohort 1, 0.05 mg/kg IV infusion, Median): 7.29 h; half-life (iv, t1/2, Cohort 1, 0.05 mg/kg IV infusion, cohort Geometric Mean): 7.33 h; half-life (iv, t1/2, Cohort 1, 0.05 mg/kg IV infusion, cohort Mean): 7.36 h; half-life (iv, t1/2, Cohort 1, 0.05 mg/kg IV infusion, cohort Median): 7.29 h; half-life (iv, t1/2, Cohort 1, 0.05 mg/kg IV infusion, individual subject): 6.62 h; half-life (iv, t1/2, Cohort 1, 0.05 mg/kg IV infusion, individual subjects): 6.62 h; half-life (iv, t1/2, Cohort 2, […] IV infusion, Geometric Mean): 10.1 h; half-life (iv, t1/2, Cohort 2, […] IV infusion, Mean): 10.5 h; half-life (iv, t1/2, Cohort 2, […] IV infusion, Median): 9.2 h; half-life (iv, t1/2, Cohort 2, […] IV infusion, cohort Geometric Mean): 10.1 h; half-life (iv, t1/2, Cohort 2, […] IV infusion, cohort Mean): 10.5 h; half-life (iv, t1/2, Cohort 2, […] IV infusion, cohort Median): 9.2 h; half-life (iv, t1/2, Cohort 3, […] IV infusion, Geometric Mean): 13.6 h; half-life (iv, t1/2, Cohort 3, […] IV infusion, Mean): 15.2 h; half-life (iv, t1/2, Cohort 3, […] IV infusion, Median): 19 h; half-life (iv, t1/2, Cohort 3, […] IV infusion, cohort Geometric Mean): 13.6 h; half-life (iv, t1/2, Cohort 3, […] IV infusion, cohort Mean): 15.2 h; half-life (iv, t1/2, Cohort 3, […] IV infusion, cohort Median): 19 h; half-life (iv, t1/2, Cohort 3b, […] IV infusion 2 hours, Geometric Mean): 12.8 h; half-life (iv, t1/2, Cohort 3b, […] IV infusion 2 hours, Mean): 13.1 h; half-life (iv, t1/2, Cohort 3b, […] IV infusion 2 hours, Median): 13.1 h; half-life (iv, t1/2, Cohort 3b, […] IV infusion 2 hours, individual subject): 17.5 h; half-life (iv, t1/2, Cohort 3b, infusion 2 hours, cohort Geometric Mean): 12.8 h; half-life (iv, t1/2, Cohort 3b, infusion 2 hours, cohort Mean): 13.1 h; half-life (iv, t1/2, Cohort 3b, infusion 2 hours, cohort Median): 13.1 h; half-life (iv, t1/2, Cohort 3b, infusion 2 hours, individual subjects): 17.5 h; half-life (iv, t1/2, Cohort 4, 0.5 mg/kg IV infusion 2 hours, Geometric Mean): 15.7 h; half-life (iv, t1/2, Cohort 4, 0.5 mg/kg IV infusion 2 hours, Mean): 16.2 h; half-life (iv, t1/2, Cohort 4, 0.5 mg/kg IV infusion 2 hours, Median): 15.6 h; half-life (iv, t1/2, Cohort 4, 0.5 mg/kg IV infusion 2 hours, individual subject): 12.6 h; half-life (iv, t1/2, Cohort 4, 0.5 mg/kg IV, infusion 2 hours, cohort Geometric Mean): 15.7 h; half-life (iv, t1/2, Cohort 4, 0.5 mg/kg IV, infusion 2 hours, cohort Mean): 16.2 h; half-life (iv, t1/2, Cohort 4, 0.5 mg/kg IV, infusion 2 hours, cohort Median): 15.6 h; half-life (iv, t1/2, Cohort 4, 0.5 mg/kg IV, infusion 2 hours, individual subjects): 12.6 h; half-life (iv, t1/2, Cohort 5, 1 mg/kg IV infusion 4 hours, Geometric Mean): 18.6 h; half-life (iv, t1/2, Cohort 5, 1 mg/kg IV infusion 4 hours, Mean): 19.9 h; half-life (iv, t1/2, Cohort 5, 1 mg/kg IV infusion 4 hours, Median): 20.9 h; Tmax (mean Tmax, Cohort 1, from the start of infusion): 0.85 h; Tmax (mean Tmax, Cohort 5, from the start of infusion): 4.19 h; Vd (Cohort 1): 25.5 L; Vd (Cohort 5): 94.2 L; half-life (mean half-life, Cohorts 1 to 3 (0.05 to […], 1-hour infusion), increasing with dose): 7.22 to 15.2 h; half-life (mean half-life, Cohorts 3b and 4 (0.25 and 0.5 mg/kg, 2-hour infusion), increasing with dose): 13.1 to 16.2 h; half-life (mean terminal half-life, range over dose groups, dose range 0.05 to 0.5 mg/kg (Cohorts 1 to 4)): 7.4 to 19.9 h; half-life (t1/2, single 1-hour infusion 0.05 mg/kg, Geometric Mean): 7.33 h; half-life (t1/2, single 1-hour infusion 0.05 mg/kg, Mean): 7.36 h; half-life (t1/2, single 1-hour infusion 0.05 mg/kg, Median): 7.29 h; half-life (t1/2, single 1-hour infusion 0.05 mg/kg, individual subjects): 6.62 h

Source: patent publication US20240115654A1, “INTRAVENOUS ADMINISTRATION OF ENGINEERED ANTIMICROBIAL AMPHIPHILIC PEPTIDES” (priority 2021, published 2024)
